# Test results reported in ChEMBL document CHEMBL5325426, “Structure-based discovery of potent USP28 inhibitors derived from Vismodegib” (Eur J Med Chem, 2023).
# Activity calls are given as the source filed them. The rule behind the calls is not given here.
# How the values were obtained:
# [1] = target: T1, Ubiquitin carboxyl-terminal hydrolase 8 (Homo sapiens) (UniProt P40818); assay: Inhibition of USP8 (734 to 1110 residues) (unknown origin) expressed in Escherichia coli BL21 (DE3) using Ub-AMC as substrate at 5 uM by fluorescence based analysis
# T1 sequence (whole entry): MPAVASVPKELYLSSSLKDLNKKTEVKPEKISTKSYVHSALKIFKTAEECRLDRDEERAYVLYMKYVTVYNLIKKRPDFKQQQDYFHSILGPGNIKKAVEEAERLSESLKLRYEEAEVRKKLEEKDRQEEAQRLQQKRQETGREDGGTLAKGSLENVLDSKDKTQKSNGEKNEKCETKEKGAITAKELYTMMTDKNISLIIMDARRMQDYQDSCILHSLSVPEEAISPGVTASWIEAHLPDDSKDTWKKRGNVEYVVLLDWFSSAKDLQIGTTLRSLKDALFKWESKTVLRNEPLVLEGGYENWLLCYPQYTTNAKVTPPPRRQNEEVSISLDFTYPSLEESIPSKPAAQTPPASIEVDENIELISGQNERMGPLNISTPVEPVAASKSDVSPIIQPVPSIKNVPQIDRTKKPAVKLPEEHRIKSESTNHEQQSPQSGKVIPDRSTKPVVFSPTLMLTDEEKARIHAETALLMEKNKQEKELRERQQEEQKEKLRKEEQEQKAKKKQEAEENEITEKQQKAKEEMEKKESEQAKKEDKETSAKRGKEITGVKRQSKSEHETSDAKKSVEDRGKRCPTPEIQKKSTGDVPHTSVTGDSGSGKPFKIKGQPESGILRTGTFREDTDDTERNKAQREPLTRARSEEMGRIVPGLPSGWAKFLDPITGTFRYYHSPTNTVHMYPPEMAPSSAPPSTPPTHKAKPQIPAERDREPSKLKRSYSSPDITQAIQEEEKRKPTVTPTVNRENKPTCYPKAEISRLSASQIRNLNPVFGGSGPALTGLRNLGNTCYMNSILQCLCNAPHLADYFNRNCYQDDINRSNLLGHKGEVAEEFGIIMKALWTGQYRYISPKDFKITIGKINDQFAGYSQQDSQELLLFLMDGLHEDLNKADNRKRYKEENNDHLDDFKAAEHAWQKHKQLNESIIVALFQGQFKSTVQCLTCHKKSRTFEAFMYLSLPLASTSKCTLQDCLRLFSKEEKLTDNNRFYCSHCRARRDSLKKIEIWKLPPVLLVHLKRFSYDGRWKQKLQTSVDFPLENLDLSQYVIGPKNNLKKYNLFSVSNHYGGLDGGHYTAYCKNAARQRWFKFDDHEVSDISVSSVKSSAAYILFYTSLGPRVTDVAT
# [2] = target: T2, Ubiquitin carboxyl-terminal hydrolase isozyme L5 (Homo sapiens) (UniProt Q9Y5K5); assay: Inhibition of UCHL5 (1 to 228 residues) (unknown origin) expressed in Escherichia coli BL21 (DE3) using Ub-AMC as substrate at 5 uM by fluorescence based analysis
# T2 sequence (whole entry): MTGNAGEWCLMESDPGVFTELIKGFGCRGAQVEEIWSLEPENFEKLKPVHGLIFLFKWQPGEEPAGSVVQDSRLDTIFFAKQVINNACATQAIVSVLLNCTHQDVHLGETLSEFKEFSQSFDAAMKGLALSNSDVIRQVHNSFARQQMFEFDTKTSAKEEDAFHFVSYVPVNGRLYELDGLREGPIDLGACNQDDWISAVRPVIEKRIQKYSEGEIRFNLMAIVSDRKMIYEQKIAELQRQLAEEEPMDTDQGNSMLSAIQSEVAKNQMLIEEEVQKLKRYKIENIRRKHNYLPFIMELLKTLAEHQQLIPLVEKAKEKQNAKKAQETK
# [3] = target: T3, Ubiquitin carboxyl-terminal hydrolase 25 (Homo sapiens) (UniProt Q9UHP3); assay: Inhibition of USP25 in human HCT-116 cells assessed as downregulation of Tankyrase 1/2 protein level; format: cell-based
# T3 sequence (whole entry): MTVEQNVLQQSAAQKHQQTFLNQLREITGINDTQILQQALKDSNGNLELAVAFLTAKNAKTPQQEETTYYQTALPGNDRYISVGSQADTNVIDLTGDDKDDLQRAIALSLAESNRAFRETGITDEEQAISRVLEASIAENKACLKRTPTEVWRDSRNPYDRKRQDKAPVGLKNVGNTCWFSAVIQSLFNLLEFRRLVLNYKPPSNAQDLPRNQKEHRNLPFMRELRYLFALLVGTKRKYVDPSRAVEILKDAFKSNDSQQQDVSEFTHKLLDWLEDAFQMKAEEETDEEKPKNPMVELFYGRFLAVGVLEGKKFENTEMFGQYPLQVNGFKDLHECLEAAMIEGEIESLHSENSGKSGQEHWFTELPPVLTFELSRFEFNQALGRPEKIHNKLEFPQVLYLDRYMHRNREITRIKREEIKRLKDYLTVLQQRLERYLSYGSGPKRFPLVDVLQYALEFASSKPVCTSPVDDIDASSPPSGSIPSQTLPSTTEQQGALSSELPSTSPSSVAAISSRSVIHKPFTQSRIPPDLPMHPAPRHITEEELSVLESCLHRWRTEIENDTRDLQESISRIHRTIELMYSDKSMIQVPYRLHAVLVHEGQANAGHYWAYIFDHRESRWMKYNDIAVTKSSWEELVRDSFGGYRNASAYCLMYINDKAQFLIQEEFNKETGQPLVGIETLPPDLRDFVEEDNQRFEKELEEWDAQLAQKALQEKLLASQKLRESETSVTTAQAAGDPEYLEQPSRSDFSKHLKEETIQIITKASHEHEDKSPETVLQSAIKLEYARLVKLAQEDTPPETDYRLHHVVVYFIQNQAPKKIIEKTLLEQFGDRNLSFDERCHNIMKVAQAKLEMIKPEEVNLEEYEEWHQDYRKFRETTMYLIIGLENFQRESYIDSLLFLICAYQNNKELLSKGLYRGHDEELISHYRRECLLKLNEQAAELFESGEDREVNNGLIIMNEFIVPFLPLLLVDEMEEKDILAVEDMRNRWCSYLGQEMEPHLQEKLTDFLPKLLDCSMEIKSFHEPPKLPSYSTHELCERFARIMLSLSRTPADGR
inhibition [1],inhibition [2],inhibition [3],SMILES
Active,Active,Active,CS(=O)(=O)c1ccc(C(=O)Nc2ccc(Cl)c(-c3ccc4c(c3)CCNC4)c2)c(Cl)c1
Active,Active,Active,CS(=O)(=O)c1ccc(C(=O)Nc2ccc(Cl)c(-c3ccc(C4(N)CC4)cc3)c2)c(Cl)c1
Active,Active,Active,CS(=O)(=O)c1ccc(C(=O)Nc2ccc(Cl)c(-c3ccc4c(c3)CNC4)c2)c(Cl)c1
